# Assay: from Suikov, S.; Kal'nits'kii, M.; Lutsik, O.; Plyushchakova, L.; Bondarenko, A.; Bogza, S.; Popov, A. (2007). Derivatives of 1,2,4-triazolo[4,3-b]pyridazin-6-ylhydrazine as a new training set for …
row,Structure (SMILES),logP
1,CC(=NN=c1ccc2nncn2[nH]1)c1ccc(O)cc1,1.45
2,COc1cc(C=NN=c2ccc3nncn3[nH]2)cc(OC)c1OC,1.53
3,CC(=NN=c1ccc2nncn2[nH]1)c1ccc(C)cc1,2.2
4,COc1cccc(C(C)=NN=c2ccc3nncn3[nH]2)c1,1.97
5,CC(=NN=c1ccc2nncn2[nH]1)c1ccccc1O,1.89
6,CC/C(=N/Nc1ccc2nncn2n1)c1ccccc1,2.15
7,CC(=NN=c1ccc2nncn2[nH]1)c1cccc(O)c1,1.46
8,CC(=NN=c1ccc2nncn2[nH]1)c1ccncc1,0.93

# Second part, the compound after the results:
row,logP,Structure (SMILES)
1,1.15,CC(=NN=c1ccc2nncn2[nH]1)c1ccccn1
2,2.02,CC(=NN=c1ccc2nncn2[nH]1)c1ccc(F)cc1
3,1.94,COc1ccccc1C(C)=NN=c1ccc2nncn2[nH]1
